70 compounds from PubChem BioAssay AID179 (DTP/NCI, 2004) can be followed below.

The test deals with CEM cells HIV-1 protection, formazan growth assay. Briefly: NCI AIDS Antiviral Assay. The settings on record: for IC50: measured here: growth of uninfected CEM cells. In short, it runs like this:
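Human CEM cells, uninfected and HIV-1-infected, received five drug concentrations, and growth was read by soluble formazan assay. Compounds giving at least 50% protection were retested; reproducible 100% protection defined confirmed active.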

As a reminder, the EC50 is the concentration giving half of the maximal effect. The IC50 is the midpoint of a concentration-inhibition curve. A lower IC50 goes with inhibition by little substance.

Active and inactive are the calls of the source.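 The calls were made as follows: active = compounds giving half or more protection of infected cells from virus-caused growth loss, again on retest; inactive = the rest.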

Regarding `CC(=O)OCC1OC(n2cc(I)c(=O)[nH]c2=O)C(OC(C)=O)C(OC(C)=O)C1OC(C)=O` (stereo unspecified), the EC50 was more than 437 µM and the IC50 amounted to 282 µM. The matching figures for `CC1(C)[C@H](CO)C(CO)[C@@H]1n1cnc2c(N)ncnc21` (stereo partly specified): more than 912 µM and more than 912 µM. For the compound `O=C1/C(=C/c2ccc3c(c2)OCO3)SC2C=Nc3ccccc3N12` (stereo unspecified), the EC50 was more than 2.24 µM and the IC50 was more than 2.24 µM. With `O=C(c1ccc(Cl)cc1)c1ccc(N=[N+]([O-])c2ccc(C(=O)c3ccc(Cl)cc3)cc2)cc1`, the EC50 is more than 100 µM and the IC50 is more than 100 µM. For the compound `COC(=O)C1=COC2OC3C(C(C)O)C(=O)OC34C=CC1C24` (stereo unspecified), the EC50 is more than 589 µM and the IC50 was found to be 63.1 µM. The matching figures for `C=C1CN(S(=O)(=O)c2ccc(C)cc2)CCCN(CC(C)(C)C)CCCN(S(=O)(=O)c2ccc(C)cc2)C1`: more than 200 µM and 10.5 µM. Consider `CC1CCCN(CC(O)CN2CCN(CC(O)CN3CCCC(C)C3)CC2)C1` (stereo unspecified), for which the EC50 is more than 13.2 µM and the half-maximal inhibitory concentration (IC50) was more than 13.2 µM. As to `CC(C)c1ccc(/C=C2\CSC/C(=C\c3ccc(C(C)C)cc3)C2=O)cc1`, the EC50 is more than 200 µM and the 50% inhibitory concentration (IC50) turned out to be 123 µM. Regarding `COc1cc(OC)c2c(=O)cc(-c3ccncc3)oc2c1`, the result was inactive. The same measure, in the same setting: for `Cc1nc2c(O)cc(Cl)c(O)c2nc1C` the value was “inactive”. As to `CCOc1ccccc1N=Nc1c(-c2ccccc2)nn(C(=O)CC(=O)Nc2cccc(C)c2)c1-c1ccccc1`, the EC50 was more than 25.1 µM and the IC50 is more than 25.1 µM. For the compound `CCN(CC)CCSc1c2ccccc2nc2cc(NCC(=O)Nc3ccccc3-c3ccccc3NC(=O)CNc3ccc4c(SCCN(CC)CC)c5ccccc5nc4c3)ccc12`, the EC50 is more than 33.1 µM and the half-maximal inhibitory concentration (IC50) is more than 33.1 µM. Turning to `O=c1[nH]nc2ccccc2c1Cl`, the EC50 is more than 39.8 µM and the IC50 worked out at 6.76 µM.

Turning to `CCOC(=O)C1(C#N)OC(=O)c2cnccc21` (stereo unspecified), the EC50 is more than 200 µM and the IC50 is more than 200 µM. As to `CCCC(C)C(N)=Nc1ccc(Cl)c(Cl)c1` (stereo unspecified), the EC50 is more than 200 µM and the concentration for half-maximal inhibition (IC50) was 45.7 µM.

As for `Cc1cc(C)c(NS(=O)c2cccc([N+](=O)[O-])c2)c(C)c1` (stereo unspecified), the EC50 was more than 30.9 µM and the half-maximal inhibitory concentration (IC50) is more than 30.9 µM. For `c1ccc(Oc2ncnc3ccccc23)cc1`, the EC50 was more than 200 µM and the concentration for half-maximal inhibition (IC50) is 63.1 µM. For `COc1ccc(-n2cnc3c2NC(C)(C)N=C3C(N)=O)c(OC)c1`, in that order: more than 200 µM and more than 200 µM. Take `CS(=O)(=O)c1nc2ccc(N3C(=O)c4ccccc4C3=O)cc2s1`: the outcome was inactive. As to `COC(=O)c1cc(=O)c2scc(C)[n+]2[nH]1`, the EC50 was more than 955 µM and the concentration for half-maximal inhibition (IC50) is more than 955 µM. In the case of `COC1C(N)C(OC2C(Oc3cccc4c(O)c5c(=O)oc6ccc(C)c7c(=O)oc(c34)c5c67)OC(C)C(O)C2(C)O)OC(C)C1O` (stereo unspecified), the EC50 was more than 0.2 µM and the IC50 worked out at 0.0363 µM.

As to `CCc1n[nH]c(=O)[nH]1`, the EC50 was more than 200 µM and the concentration for half-maximal inhibition (IC50) is more than 200 µM.

Take `CCCC(CC)c1cc(O)c(O)cc1C(CC)CCC` (stereo unspecified): the EC50 was more than 200 µM and the IC50 amounted to 105 µM. The matching figures for `COC(=O)c1ccc(Oc2nc3ccc(C(F)(F)F)cc3nc2-c2ccccc2)cc1`: more than 200 µM and more than 200 µM. For `COc1cc(C(CN)N(C)C)cc(OC)c1OC` (stereo unspecified), in that order: more than 200 µM and more than 200 µM. The matching figures for `Nc1scc2[nH]c3ccccc3[n+]12`: more than 200 µM and 15.5 µM.

Consider `COC(=O)C1C(O)C(C)C(O)C(C)C=C(C)C2=C3C(=C(C)C(=O)c4c(O)c(c(C)c(OC(C)=O)c43)NC(=O)C(C)=C/C=C\C(C)C(O)C(C)C1O)OCO2` (stereo unspecified), for which the EC50 is more than 77.6 µM. Turning to `COc1ccc(C2Oc3ccc(Cl)cc3C=C2[N+](=O)[O-])cc1` (stereo unspecified), the EC50 was more than 200 µM and the IC50 amounted to 0.447 µM. The matching figures for `CC(=O)c1cccc(N2COC(C)(C)c3nc4ccccc4n3C2)c1`: more than 200 µM and 107 µM. The matching figures for `Cc1cn(C2CC(N=[N+]=[N-])C(COP(=O)(OCC(=O)C(C)(C)C)OCC(=O)C(C)(C)C)O2)c(=O)[nH]c1=O` (stereo unspecified): 0.0011 µM and 2 µM. Take `O=C1CSC(c2ccccc2)N1c1ccc(-c2ccc(-n3c(-c4ccccc4)nc4ccccc4c3=O)cc2)cc1` (stereo unspecified): the EC50 is more than 200 µM and the 50% inhibitory concentration (IC50) is 44.7 µM.

For the compound `CCCCC(CC)CN(Cc1cc(CN(CC(CC)CCCC)CC(CC)CCCC)c(O)c(CN(CC(CC)CCCC)CC(CC)CCCC)c1)CC(CC)CCCC` (stereo unspecified), the EC50 was more than 200 µM and the concentration for half-maximal inhibition (IC50) stood at 34.7 µM.

Regarding `Nc1nc(N)c2cnnn2n1`, the EC50 was more than 295 µM and the IC50 was more than 295 µM. For the compound `O=C1c2cc(Cl)ccc2-n2cnnc2C2CSCN12` (stereo unspecified), the EC50 was more than 200 µM and the concentration for half-maximal inhibition (IC50) was more than 200 µM. In the case of `CCOc1ccc(NC(=O)CC2C(=O)Nc3ccccc3S2=O)cc1` (stereo unspecified), the EC50 is more than 7.59 µM and the half-inhibitory concentration (IC50) is more than 7.59 µM. Consider `COc1cc(/C=N/NC2=NCCCCN2)ccc1O`, for which the EC50 is more than 200 µM and the IC50 is more than 200 µM. With `CCCCCCCC(=O)c1ccc(O)c(-c2nc3ccc(C(F)(F)F)cc3[nH]2)c1`, the EC50 was more than 24.5 µM and the IC50 turned out to be 2.09 µM. The matching figures for `C=C1CC(Cn2ccc(=O)[nH]c2=O)(c2ccc(-c3ccccc3)cc2)OC1=O` (stereo unspecified): more than 20 µM and 0.479 µM. With `O=C(O)CCCNS(=O)(=O)c1ccccc1`, the outcome was inactive. Regarding `CC(=O)C(N)=NCc1ccccc1`, the EC50 is more than 1410 µM and the 50% inhibitory concentration (IC50) turned out to be 1020 µM. Regarding `CCN1C(=O)C(N=[N+]=[N-])(c2ccccc2)C(=O)c2ccccc21` (stereo unspecified), the EC50 is more than 200 µM and the half-inhibitory concentration (IC50) was more than 200 µM. As for `Cc1ccc(NC(=O)CSc2nc(C)nc3c2sc(=S)n3-c2ccccc2)cc1`, the EC50 is more than 200 µM and the 50% inhibitory concentration (IC50) amounted to 138 µM.

On to `CN(NC(=O)/C(=C/c1ccc(O)cc1)NC(=O)c1ccccc1)c1ccnc2cc(Cl)ccc12`, for which the EC50 is more than 200 µM and the IC50 amounted to 10.2 µM. For `Cc1cn(C2CC(n3ncnn3)C(CO)O2)c(=O)[nH]c1=O` (stereo unspecified), the result was inactive. As to `Brc1cscc1Cc1cscc1Br`, the EC50 was more than 200 µM and the concentration for half-maximal inhibition (IC50) was determined as 74.1 µM.

For the compound `Cc1ccc(C(=O)O/N=C2/CCCC/C2=C\c2ccccc2)cc1`, the outcome was inactive. With `Nc1nc2c(C(=O)O)c3ccc([N+](=O)[O-])cc3c(=O)n2c2ccccc12`, the EC50 is more than 200 µM and the IC50 worked out at 15.8 µM. Turning to `Cc1cc(=O)c(C#N)c(C)s1`, the EC50 was more than 200 µM and the IC50 was more than 200 µM.

Turning to `c1cc2cc3c4c5c(cc6ccc7cc8cc9c%10c8c8c7c6c5c8c5c%10c(c1C9N1CCOCCOCCOCCOCCOCC1)c2c45)C3` (stereo unspecified), the EC50 is more than 100 µM and the IC50 was more than 100 µM. As for `O=C(c1ccccc1)c1ccc2c(c1)N=C(c1ccc(Cl)c(Cl)c1)CC(c1ccc3ccccc3c1)N2` (stereo unspecified), the EC50 was more than 13.8 µM and the IC50 was more than 13.8 µM. `CC1=C(C(=O)NCc2ccccc2)C(c2ccccc2C)C(C(=O)NCc2ccccc2)=C(C)N1`: the EC50 was more than 21.4 µM and the IC50 is more than 21.4 µM.

Take `C=CCOc1ccc(C2C(C(=O)OCC)C(=O)CC(C)(O)C2C(=O)OCC)cc1OC` (stereo unspecified): the EC50 is more than 200 µM and the IC50 is more than 200 µM. As to `O=C(CBr)N1CCC2(CC1)SSC1(CCN(C(=O)CBr)CC1)S2`, the EC50 is more than 200 µM and the 50% inhibitory concentration (IC50) is 0.575 µM. For `c1c[nH]c(-c2ccc(-c3ccc[nH]3)c3nsnc23)c1`, in that order: more than 200 µM and more than 200 µM. Turning to `O=C(Cc1ccc([N+](=O)[O-])cc1)OCC#CCOC(=O)Cc1ccc([N+](=O)[O-])cc1`, the EC50 was more than 200 µM and the IC50 is more than 200 µM. As to `NC1=Nc2cc(C(F)(F)F)ccc2Sc2nc3ccccc3n21`, the EC50 is more than 200 µM.

Regarding `Cc1ccc(NC(=O)C(=O)C2NC(=S)NC2=O)c([N+](=O)[O-])c1` (stereo unspecified), the EC50 was more than 295 µM and the half-inhibitory concentration (IC50) turned out to be 129 µM. Consider `CC[n+]1c(/C=C/c2cc(C(=O)OC)n3c2sc2ccccc23)sc2ccccc21`, for which the EC50 was more than 200 µM and the IC50 turned out to be 11 µM. For `COC1=CC(=O)C2C(C1=O)[C@@H]1c3ccccc3OC(C)(C)[C@H]21` (stereo partly specified), the EC50 is more than 166 µM and the concentration for half-maximal inhibition (IC50) amounted to 16.2 µM. `COc1ccc(SCc2ccc(C(=O)O)cc2)cc1`: the EC50 was more than 26.3 µM and the concentration for half-maximal inhibition (IC50) was more than 26.3 µM. On to `CC1(C)OC2C=C(COCc3ccccc3)C[C@H]3[C@@H]2C(O1)[C@@H]1OC[C@H]3O1` (stereo partly specified), for which the result was inactive. Take `C/C(=N/NC(=S)N1CC2CCC(CC2)C1)c1cnccn1`: the EC50 is more than 2.24 µM and the IC50 worked out at 0.049 µM. The matching figures for `COC1/C=C/OC2(C)Oc3c(C)c(O)c4c(O)c(c(C=NN5C(C)CN(Cc6ccc(Cl)cc6)CC5C)c(O)c4c3C2=O)NC(=O)/C(C)=C/C=C/C(C)C(O)C(C)C(O)C(C)C(OC(C)=O)C1C` (stereo unspecified): more than 200 µM and 6.17 µM.

Turning to `CCc1n[nH]c(=O)n1CCCCCCCCn1c(CC)n[nH]c1=O`, the EC50 is more than 200 µM and the IC50 was more than 200 µM. `CC1=C(C(=O)NNC(=O)Cc2ccccc2)CC(C(=O)NNC(=O)Cc2ccccc2)=C(C)N1`: the EC50 was more than 200 µM and the 50% inhibitory concentration (IC50) amounted to 36.3 µM. For `Cc1c(C(=O)C/C(=N/NC(=O)C[n+]2ccccc2)C(=O)Nc2ccccc2)[n+](=O)c2ccccc2n1O`, in that order: more than 17.8 µM and more than 17.8 µM.

Turning to `COP(=O)(OC)/C(=C/c1cnc[nH]1)NC=O`, the EC50 is more than 200 µM and the concentration for half-maximal inhibition (IC50) is more than 200 µM. Turning to `Cc1ccc(/C(O)=C/c2nc3ccccc3[nH]c2=O)c(C)c1`, the EC50 was more than 200 µM and the concentration for half-maximal inhibition (IC50) is 35.5 µM. For `[CH3][Ga]([CH3])[n]1cccn1`, in that order: more than 562 µM and 74.1 µM. For `O=S(=O)(O)c1cc(N=Nc2ccc(O)c3ncccc23)ccc1/C=C/c1ccc(N=Nc2ccc(O)c3ncccc23)cc1S(=O)(=O)O`, in that order: more than 105 µM and more than 105 µM.
